# Data published in patent publication US20240390379A1, “EZH2 Inhibition in Pancreatic Cancer” (University of Massachusetts, priority 2021, published 2024).
# Tested on: KPC1 PDAC cells
# Assay: qRT-PCR of senescence and SASP gene expression in KPC1 PDAC cells with EZH2 methyltransferase inhibitors
# Format: cell-based, mouse
# Conditions: GSK126 1 μM or tazemetostat 5 μM with trametinib 25 nM and palbociclib 500 nM, 8 days
# Method: P values in b-c were calculated using two-tailed, unpaired Student's t-test.
# Trametinib (S2673), palbociclib (S1116), and GSK126 (S7061) were purchased from Selleck chemicals for in vitro studies. Drugs for in vitro studies were dissolved in DMSO (vehicle) to yield 10 mM stock solutions and stored at −80° C. For in vitro studies, growth media with or without drugs was changed every 2-3 days.
# Total RNA was isolated using the RNeasy Mini Kit (Qiagen), and complementary DNA (cDNA) was obtained using the TaqMan reverse transcription reagents (Applied Biosystems).
# Flow cytometry was performed on a BD LSR II, and data were analyzed using FlowJo (TreeStar).
smiles,measurement,value
CC[C@H](C)n1cc(C)c2c(C(=O)NCc3c(C)cc(C)[nH]c3=O)cc(-c3ccc(N4CCNCC4)nc3)cc21 [GSK126],Pro-inflammatory SASP factors and immunomodulatory cell surface proteins,induced pro-inflammatory SASP factors and immunomodulatory cell surface proteins
same,Senescence-associated cell cycle arrest,without impacting senescence-associated cell cycle arrest
